Data: paper PMC4861708 (Frontiers in Cell and Developmental Biology, 2016)
Converted amounts (≈) assume the structure as drawn. Where a SMILES comes first, the peptide text is derived from it. [ ]: non-standard residue; d: D form. The star is where a group is joined. Orn(α-tetramethylguanidino) = CN(C)C(=N[C@@H](CCCN)C(=O)*)N(C)C; Orn = NCCC[C@H](N)C(=O)O

Experiments:
[1] = tested on: HeLa cells; type: cell-based; details: 24 h
Method: Human embryonic kidney (HEK293) and HeLa cells were cultured in Dulbecco's modified Eagle's/Ham's F-12 medium [DMEM/F-12 (1:1)] supplemented with FBS (10% v/v), penicillin, and streptomycin (1000 units each). Primary rat cardiomyocytes (Innoprot, Elexalde Derio, Spain) were grown in medium supplemented with FBS (20% v/v), horse serum (5% v/v), L-glutamine (2 mmol/L), sodium pyruvate (2 mmol/L), MEM non-essential amino acids (Gibco, 0.1 mmol/L), penicillin, and streptomycin (1000 units each). Surfaces for cardiomyocyte growth were coated with attachment factor first. Cells (20,000/well) were seeded into a 96-well plate (PS, sterile, flat bottom), incubated for 24 h (37°C, 5% CO2), and washed twice with PBS (100 μl/well) prior to adding colorless medium (88 μL) and peptide solution (12 μL; 5, 2.5, 1.25, […], and 0.625 g/L in PBS). Positive controls were triton X-100 (1%, v/v) and melittin (60 mg/L) as lytic peptide, whereas PBS (12%, v/v) served as negative control. After an incubation period of 24 h, supernatant (25 μL) was mixed with lactate dehydrogenase (LDH) substrate (175 μL; 0.57 mmol/L sodium pyruvate, 0.24 mmol/L NADH disodium salt, 32 mmol/L potassium dihydrogen phosphate, 66 mmol/L dipotassium phosphate) in 96-well plates (PS, sterile, flat bottom). Absorbance was recorded at 340 nm every 3 min for 30 min on the Paradigm microplate reader. […]

[2] = tested on: HeLa cells; experiment: Flow cytometry, cell uptake of Cf-labeled peptides; type: cell-based; details: flow cytometry (abstract)
Method: (§1) HeLa cells (50,000 for endocytosis inhibition and 70,000 for uptake kinetics) suspended in DMEM/F-12 medium (300 μL; see above) were seeded into 48-well plates (PS, sterile, flat bottom) and incubated (23 ± 1 h) using the conditions described above. Cells were washed twice with PBS (300 μL/well) and fresh medium was added (144 μL).
Peptide solutions (6 μL; 1 mmol/L in H2O) were added to achieve a concentration of 40 μmol/L at different time points. Cells were washed three times with PBS (300 μL/well), treated with trypsin (75 μL; 0.05% w/v trypsin, 5 min, 37°C), rinsed off the plate using cold PBS (600 μL/well), and trypsin was removed by two washing steps (400 × g, 4°C, 4 min, 600 μL PBS each). Cells were suspended in PBS (0.1 mL) containing eFluor660 (1000 × diluted in PBS) and incubated on ice in the dark. After 30 min, cells were washed with cold PBS twice, suspended in formaldehyde (100 μL; 2% w/v in PBS), incubated (15 min, RT), washed (200 μL PBS), stored in FACS buffer (200 μL; 3% FBS, 0.1% NaN3 in PBS) overnight, and analyzed on a FACSCalibur (Becton Dickinson, New Jersey, USA). Alternatively, cells were fixed directly without prior eFluor660 staining.

[3] = tested on: HeLa cells; experiment: in vitro; type: cell-based; details: 24 h
Method: (§2) Human embryonic kidney (HEK293) and HeLa cells were cultured in Dulbecco's modified Eagle's/Ham's F-12 medium [DMEM/F-12 (1:1)] supplemented with FBS (10% v/v), penicillin, and streptomycin (1000 units each). Primary rat cardiomyocytes (Innoprot, Elexalde Derio, Spain) were grown in medium supplemented with FBS (20% v/v), horse serum (5% v/v), L-glutamine (2 mmol/L), sodium pyruvate (2 mmol/L), MEM non-essential amino acids (Gibco, 0.1 mmol/L), penicillin, and streptomycin (1000 units each). Surfaces for cardiomyocyte growth were coated with attachment factor first. Cells (20,000/well) were seeded into a 96-well plate (PS, sterile, flat bottom), incubated for 24 h (37°C, 5% CO2), and washed twice with PBS (100 μl/well) prior to adding colorless medium (88 μL) and peptide solution (12 μL; 5, 2.5, 1.25, […], and 0.625 g/L in PBS). Positive controls were triton X-100 (1%, v/v) and melittin (60 mg/L) as lytic peptide, whereas PBS (12%, v/v) served as negative control. After an incubation period of 24 h, supernatant (25 μL) was mixed with lactate dehydrogenase (LDH) substrate (175 μL; 0.57 mmol/L sodium pyruvate, 0.24 mmol/L NADH disodium salt, 32 mmol/L potassium dihydrogen phosphate, 66 mmol/L dipotassium phosphate) in 96-well plates (PS, sterile, flat bottom). Absorbance was recorded at 340 nm every 3 min for 30 min on the Paradigm microplate reader. Due to the total release of LDH upon triton X-100 treatment, the control contained high LDH concentrations resulting in a fast substrate turnover that was only linear for the first 6 min.
(§3) The MTT cell viability assay relied on the same cell culture. Remaining medium was replaced by a mixture of fresh colorless medium (100 μL) and MTT (10 μL; 5 g/L in PBS) and incubated for 4 h (37°C, 5% CO2). A solution of sodium dodecyl sulfate (100 μL; 10%, w/v) dissolved in hydrochloric acid (10 mmol/L) was added, incubated (16 h), and the absorbance recorded at 590 nm relative to the reference at 650 nm (Paradigm microplate reader). The relative cell viability was calculated by [(ODPeptide − ODTriton)/(ODPBS − ODTriton)] × 100% and half-maximal inhibitory concentrations (IC50) with an Excel-template from cell biology protocols (www.sciencegateway.org/ protocols/cellbio/drug/hcic50.htm). For statistical analysis an unpaired t-test was applied using GraphPad Prism 5.0.

[4] = tested on: HeLa cells; experiment: Flow cytometry, endocytosis inhibition with dynasore; type: cell-based; details: dynasore 0.2 mmol/L 45 min, peptide 40 μmol/L 30 min
Method: Fresh colorless medium (150 μL) supplemented with either dynasore (0.2 mmol/L) dissolved in DMSO (final concentration of 0.2% v/v) or DMSO (0.2% v/v) as vehicle control was added. After 45 min (37°C) the supernatant was replaced by fresh medium supplemented with either dynasore or DMSO at the same concentrations (144 μL), Cf-labeled peptide added (6 μL, 1 mmol/L in water), and incubated (30 min, 37°C). Cells were fixed and stained with Hoechst 33342 as described above.
as §1
Cell cultures were prepared and incubated in the presence of dynasore, as described for microscopy. Cells were washed, treated with trypsin, and fixed as described above, dissolved in FACS buffer, and analyzed the same day.

[5] = tested on: human erythrocytes; experiment: Hemolysis assay; type: cell-based; details: 0.1 g/L peptide, 1 h
Method: Human EDTA blood (S-Monovette® with potassium-EDTA Sarstedt AG, Nümbrecht, Germany) was centrifuged (3 min, 300 × g, 4°C) and blood cells were washed three times using the 10-fold volume of cold PBS. The diluted blood cell suspension (2% v/v in PBS, 50 μL) was mixed with a peptide solution (1.2 or 0.2 g/L in PBS, 50 μL) or triton X-100 (1%, v/v in PBS; control) in 96-well plates (PP, V-bottom). After incubation under constant shaking (1 h, 37°C, 300 rpm, Eppendorf Thermomixer) the suspension was centrifuged (3 min, 4°C, 1000 × g) and the OD405 of the supernatant was measured in a 384-well plate (PS, flat bottom, Paradigm microplate reader, Molecular Devices, Sunnyvale, USA). The hemolytic grade (HG) was calculated as [(ODPeptide−ODPBS)/(ODTriton−ODPBS)] × 100%.

[6] = in vitro; type: cell-based, rat; details: rat
Method: as §2, §3

[7] = tested on: Primary rat cardiomyocytes; experiment: in vitro; type: cell-based; details: 24 h
Method: as §2, §3

SMILES: CC(C)C[C@H](NC(=O)[C@H](CCCNC(=N)N)NC(=O)[C@@H]1CCCN1C(=O)[C@H](Cc1c[nH]cn1)NC(=O)[C@@H]1CCCN1C(=O)[C@@H]1CCCN1C(=O)[C@H](CCCNC(=N)N)NC(=O)[C@@H]1CCCN1C(=O)[C@H](CCCNC(=N)N)NC(=O)[C@@H]1CCCN1C(=O)[C@H](CCCN)NC(=O)[C@H](Cc1ccc(O)cc1)NC(=O)[C@@H](NC(=O)[C@@H]1CCCN1C(=O)[C@H](CCCNC(=N)N)NC(=O)[C@H](CCCN)NC(=O)[C@H](Cc1c[nH]c2ccccc12)NC(=O)[C@H](CCCN)NC(=O)[C@H](Cc1c[nH]c2ccccc12)NC(=O)[C@H](CCCN)NC(=O)[C@H](Cc1c[nH]c2ccccc12)NC(=O)[C@H](CCCN)N=C(N(C)C)N(C)C)C(C)C)C(=O)O [Api794, gu-O(WO)3RPVYOPRPRPPHPRL-OH] ({Orn(α-tetramethylguanidino)}-W[Orn]W[Orn]W[Orn]RPVY[Orn]PRPRPPHPRL-OH)
- EC50 of LDH release [1]: 560 ± 160 µg/mL
- higher uptake compared with Api795 [2]: 50%
- IC50 on cell viability [3]: 230 ± 90 µg/mL (≈ 77.6 µM)
- Drop of GeoMean fluorescence (uptake) in the presence of dynasore vs vehicle control [4]: 50%
- Hemolytic grade [5]: 1.7 ± 0.2%
- viability at 24 h, 0.6 g/L [6]: 64 ± 3%
- IC50 on cell viability [7]: >600 µg/mL

SMILES: CC[C@H](C)[C@H](NC(=O)[C@H](CCCN)N=C(N(C)C)N(C)C)C(=O)N[C@@H](CCCN)C(=O)N[C@H](C(=O)N[C@@H](CCCN)C(=O)N[C@@H](CCCNC(=N)N)C(=O)N1CCC[C@H]1C(=O)N[C@H](C(=O)N[C@@H](Cc1ccc(O)cc1)C(=O)N[C@@H](CCCN)C(=O)N1CCC[C@H]1C(=O)N[C@@H](CCCNC(=N)N)C(=O)N1CCC[C@H]1C(=O)N[C@@H](CCCNC(=N)N)C(=O)N1CCC[C@H]1C(=O)N1CCC[C@H]1C(=O)N[C@@H](Cc1c[nH]cn1)C(=O)N1CCC[C@H]1C(=O)N[C@@H](CCCNC(=N)N)C(=O)N[C@@H](CC(C)C)C(=O)O)C(C)C)[C@@H](C)CC [Api795, gu-O(IO)2RPVYOPRPRPPHPRL-OH] ({Orn(α-tetramethylguanidino)}-I[Orn]I[Orn]RPVY[Orn]PRPRPPHPRL-OH)
- IC50 on cell viability [3]: >600 µg/mL
- Drop of GeoMean fluorescence (uptake) in the presence of dynasore vs vehicle control [4]: 80%
- viability at 24 h, 0.6 g/L [6]: 83 ± 4%
- IC50 on cell viability [7]: >600 µg/mL
